Experimental data reported in ChEMBL document CHEMBL1144533, “Synthesis and evaluation of 2-{[2-(4-hydroxyphenyl)-ethyl]amino}pyrimidine-5-carboxamide derivatives as novel STAT6 inhibitors” (Bioorg Med Chem, 2007).
Active and inactive are the calls of the source. The rule behind the calls is not given here.

system: T-cell; experiment: Effect on differentiation of C57BL/6 mouse T cells assessed as inhibition of IL4 production; type: functional, cell-based; details: C57BL/6, T-cell

| IC50 [nM] | Compound |
| --- | --- |
| 14 | Cc1cccc(Nc2nc(NCCc3ccc(O)cc3)ncc2C(N)=O)c1 |
| 2.3 | NC(=O)c1cnc(NCCc2ccc(O)c(Cl)c2)nc1NCc1ccccc1 |

target: T1, Signal transducer and activator of transcription 6 (Homo sapiens, UniProt P42226); experiment: Inhibition of STAT6 in human IL4-stimulated FW4 cells; details: not given
T1 sequence (P42226 whole entry): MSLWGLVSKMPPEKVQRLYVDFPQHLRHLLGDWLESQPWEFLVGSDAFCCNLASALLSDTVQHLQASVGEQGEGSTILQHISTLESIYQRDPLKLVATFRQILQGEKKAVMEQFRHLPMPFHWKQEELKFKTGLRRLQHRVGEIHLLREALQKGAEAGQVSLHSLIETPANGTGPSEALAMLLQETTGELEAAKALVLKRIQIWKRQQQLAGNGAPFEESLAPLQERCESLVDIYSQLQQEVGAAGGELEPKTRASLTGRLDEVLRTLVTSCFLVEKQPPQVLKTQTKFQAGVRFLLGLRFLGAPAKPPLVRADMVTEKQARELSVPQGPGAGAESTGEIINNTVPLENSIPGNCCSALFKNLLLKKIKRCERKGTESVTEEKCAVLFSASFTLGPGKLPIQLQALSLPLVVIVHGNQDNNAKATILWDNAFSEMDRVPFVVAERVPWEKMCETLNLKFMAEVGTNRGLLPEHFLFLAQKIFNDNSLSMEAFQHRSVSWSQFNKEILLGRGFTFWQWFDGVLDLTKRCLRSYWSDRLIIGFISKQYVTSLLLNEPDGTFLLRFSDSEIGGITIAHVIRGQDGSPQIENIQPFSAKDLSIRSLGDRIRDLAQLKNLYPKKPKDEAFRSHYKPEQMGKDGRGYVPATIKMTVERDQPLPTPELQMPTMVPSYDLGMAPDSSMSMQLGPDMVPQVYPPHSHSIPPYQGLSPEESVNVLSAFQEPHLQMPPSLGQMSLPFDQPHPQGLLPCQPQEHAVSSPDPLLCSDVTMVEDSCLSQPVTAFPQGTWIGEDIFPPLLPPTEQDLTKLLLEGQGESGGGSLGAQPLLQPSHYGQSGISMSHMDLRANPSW

| IC50 [nM] | Compound |
| --- | --- |
| 190 | Cc1cccc(Nc2nc(NCCc3ccc(O)cc3)ncc2C(N)=O)c1 |
| 660 | COc1cc(CCNc2ncc(C(N)=O)c(Nc3cccc(C)c3)n2)ccc1O |
| 83 | Cc1cccc(Nc2nc(NCCc3ccc(O)c(Br)c3)ncc2C(N)=O)c1 |
| 3000 | Cc1cccc(Nc2nc(NCCc3cccc(O)c3)ncc2C(N)=O)c1 |
| 21 | NC(=O)c1cnc(NCCc2ccc(O)c(Cl)c2)nc1NCc1ccccc1 |
| 410 | NC(=O)c1cnc(NCCc2ccc(O)cc2)nc1Nc1ccccc1 |

Second part, the molecule before the results:

| Compound | IC50 [nM] |
| --- | --- |
| Cc1cccc(Nc2nc(NCCc3ccc(O)c(F)c3)ncc2C(N)=O)c1 | 64 |
| Cc1cccc(Nc2nc(NCCc3ccc(O)cc3)ncc2C(=O)NC(C)C)c1 | 1100 |
| CCNC(=O)c1cnc(NCCc2ccc(O)cc2)nc1Nc1cccc(C)c1 | 380 |
| CNC(=O)c1cnc(NCCc2ccc(O)cc2)nc1Nc1cccc(C)c1 | 170 |
| NC(=O)c1cnc(NCCc2ccc(O)cc2)nc1NCc1ccccc1 | 88 |
| Cc1cccc(Nc2nc(NCCc3ccc(O)cc3)ncc2C(=O)N(C)C)c1 | 8200 |
| Cc1cccc(Nc2nc(NCCc3ccc(O)c(C)c3)ncc2C(N)=O)c1 | 130 |
| NC(=O)c1cnc(NCCc2ccc(O)cc2)nc1NC1CCCCC1 | 100 |
| Cc1cccc(Nc2nc(NCCc3ccc(O)c(Cl)c3)ncc2C(N)=O)c1 | 45 |
| CNC(=O)c1cnc(NCCc2ccc(O)c(Cl)c2)nc1NCc1ccccc1 | 30 |

target: T2, Signal transducer and activator of transcription 6 (Homo sapiens) (UniProt P42226); experiment: Inhibition of STAT6 in human IL4-stimulated FW4 cells at 10 uM; details: not given
T2 sequence (whole entry): T1 sequence (P42226 whole entry)

| inhibition [%] | Compound |
| --- | --- |
| 49 | COc1ccc(CCNc2ncc(C(N)=O)c(Nc3cccc(C)c3)n2)cc1 |
| 23 | Cc1cccc(Nc2nc(NCCCc3ccc(O)cc3)ncc2C(N)=O)c1 |
| 32 | Cc1cccc(Nc2nc(CCCc3ccc(O)cc3)ncc2C(N)=O)c1 |
| 16 | Cc1cccc(Nc2nc(NCCc3ccccc3)ncc2C(N)=O)c1 |

Continued, molecule first:

| Compound | inhibition [%] |
| --- | --- |
| Cc1cccc(Nc2nc(NCc3ccc(O)cc3)ncc2C(N)=O)c1 | 19 |
| Cc1cccc(Nc2nc(NCCc3ccccc3O)ncc2C(N)=O)c1 | 15 |

system: T-cell; experiment: Effect on differentiation of C57BL/6 mouse T cells assessed as inhibition of IL12-induced TFN-gamma production; type: functional, cell-based; details: not given

| Compound | Activity |
| --- | --- |
| Cc1cccc(Nc2nc(NCCc3ccc(O)cc3)ncc2C(N)=O)c1 | inactive |
| NC(=O)c1cnc(NCCc2ccc(O)c(Cl)c2)nc1NCc1ccccc1 | inactive |
